Among the data in patent publication EP1285920A1, “C10 Ester sustituted taxanes as antitumor agents” (Florida State University Research Foundation, Inc., priority 2001, dated 2003) are IC50 values, retold here.

pIC50: −log10 of the molar value.

One assay has as its system HCT116. Put plainly: In Vitro cytotoxicity measured by the cell colony formation assay. It counts as cell-based, human. The following applies: HCT116 colony formation; 72 h with drug, colonies counted after 7 days; ID50 = concentration producing 50% inhibition of colony formation; read-out: IN VITRO ID 50 HCT116. As to the method:
Four hundred cells (HCT116) were plated in 60 mm Petri dishes containing 2.7 mL of medium (modified McCoy's 5a medium containing 10% fetal bovine serum and 100 units/mL penicillin and […] streptomycin). The cells were incubated in a CO2 incubator at 37 °C for 5 h for attachment to the bottom of Petri dishes. The compounds identified in Example 2 were made up fresh in medium at ten times the final concentration, and then 0.3 mL of this stock solution was added to the 2.7 mL of medium in the dish. The cells were then incubated with drugs for 72 h at 37 °C. At the end of incubation the drug-containing media were decanted, the dishes were rinsed with 4 mL of Hank's Balance Salt Solution (HBSS), 5 mL of fresh medium was added, and the dishes were returned to the incubator for colony formation. The cell colonies were counted using a colony counter after incubation for 7 days.
Consider `CC=CC(=O)OC1C(=O)C2(C)C(O)CC3OCC3(OC(C)=O)C2C(OC(=O)c2ccccc2)C2(O)CC(OC(=O)C(O)C(C=C(C)C)NC(=O)OC(C)(C)C)C(C)=C1C2(C)C` (stereo not drawn) [Compound 2332], for which the pIC50 is above 9.00.

Regarding `CC=CC(=O)OC1C(=O)C2(C)C(O)CC3OCC3(OC(C)=O)C2C(OC(=O)c2ccccc2)C2(O)CC(OC(=O)C(O)C(NC(=O)OC(C)(C)C)c3ccccn3)C(C)=C1C2(C)C` (stereo not drawn) [Compound 2348], the pIC50 is above 9.00.

Turning to `CC=CC(=O)OC1C(=O)C2(C)C(O)CC3OCC3(OC(C)=O)C2C(OC(=O)c2ccccc2)C2(O)CC(OC(=O)C(O)C(NC(=O)OC(C)(C)C)c3cccnc3)C(C)=C1C2(C)C` (stereo not drawn) [Compound 2353], the pIC50 is above 8.00.

As to `CC=CC(=O)OC1C(=O)C2(C)C(O)CC3OCC3(OC(C)=O)C2C(OC(=O)c2ccccc2)C2(O)CC(OC(=O)C(O)C(NC(=O)OC(C)(C)C)c3ccncc3)C(C)=C1C2(C)C` (stereo not drawn) [Compound 2366], the pIC50 is above 9.00.

Consider `CC=CC(=O)OC1C(=O)C2(C)C(O)CC3OCC3(OC(C)=O)C2C(OC(=O)c2ccccc2)C2(O)CC(OC(=O)C(O)C(NC(=O)OC(C)(C)C)c3ccco3)C(C)=C1C2(C)C` (stereo not drawn) [Compound 2379], for which the pIC50 is above 9.00.

Regarding `CC=CC(=O)OC1C(=O)C2(C)C(O)CC3OCC3(OC(C)=O)C2C(OC(=O)c2ccccc2)C2(O)CC(OC(=O)C(O)C(NC(=O)OC(C)(C)C)c3ccoc3)C(C)=C1C2(C)C` (stereo not drawn) [Compound 2380], the pIC50 is above 9.00.

Turning to `CC=CC(=O)OC1C(=O)C2(C)C(O)CC3OCC3(OC(C)=O)C2C(OC(=O)c2ccccc2)C2(O)CC(OC(=O)C(O)C(NC(=O)OC(C)(C)C)C(C)C)C(C)=C1C2(C)C` (stereo not drawn) [Compound 2413], the pIC50 is above 8.00.

Take `CC=CC(=O)OC1C(=O)C2(C)C(O)CC3OCC3(OC(C)=O)C2C(OC(=O)c2ccccc2)C2(O)CC(OC(=O)C(O)C(NC(=O)OC(C)(C)C)C3CCC3)C(C)=C1C2(C)C` (stereo not drawn) [Compound 2424]: the pIC50 is above 8.00.

Turning to `CC=CC(=O)OC1C(=O)C2(C)C(O)CC3OCC3(OC(C)=O)C2C(OC(=O)c2ccccc2)C2(O)CC(OC(=O)C(O)C(NC(=O)OC(C)(C)C)c3ccc([N+](=O)[O-])cc3)C(C)=C1C2(C)C` (stereo not drawn) [Compound 2439], the pIC50 was above 8.00.

Still in this assay, the particulars now being: Homo sapiens, HCT-116; read-out: IN VITRO ID 50 HCT116.
Regarding `CC(=O)OC12COC1CC(O)C1(C)C(=O)C(OC(=O)C(C)C)C3=C(C)C(OC(=O)C(O)C(NC(=O)OC(C)(C)C)C4CCC4)CC(O)(C(OC(=O)c4ccccc4)C21)C3(C)C` (stereo not drawn) [Compound 2319], the pIC50 was above 8.00.

In the case of `CC(=O)OC12COC1CC(O)C1(C)C(=O)C(OC(=O)C(C)C)C3=C(C)C(OC(=O)C(O)C(NC(=O)OC(C)(C)C)c4ccc([N+](=O)[O-])cc4)CC(O)(C(OC(=O)c4ccccc4)C21)C3(C)C` (stereo not drawn) [Compound 2320], the pIC50 is above 9.00.

`CC(=O)O[C@@]12CO[C@@H]1C[C@H](O)[C@@]1(C)C(=O)[C@H](OC(=O)C=C(C)C)C3=C(C)[C@@H](OC(=O)[C@H](O)[C@H](C=C(C)C)NC(=O)OC(C)(C)C)C[C@@](O)([C@@H](OC(=O)c4ccccc4)[C@H]21)C3(C)C` [Compound 2455]: the pIC50 is above 8.00.

Regarding `CC(=O)O[C@@]12CO[C@@H]1C[C@H](O)[C@@]1(C)C(=O)[C@H](OC(=O)C=C(C)C)C3=C(C)[C@@H](OC(=O)[C@H](O)[C@@H](NC(=O)OC(C)(C)C)c4ccccn4)C[C@@](O)([C@@H](OC(=O)c4ccccc4)[C@H]21)C3(C)C` [Compound 2464], the pIC50 was above 9.00.

For `CC(=O)O[C@@]12CO[C@@H]1C[C@H](O)[C@@]1(C)C(=O)[C@H](OC(=O)C=C(C)C)C3=C(C)[C@@H](OC(=O)[C@H](O)[C@@H](NC(=O)OC(C)(C)C)c4ccncc4)C[C@@](O)([C@@H](OC(=O)c4ccccc4)[C@H]21)C3(C)C` [Compound 2472], the pIC50 was above 9.00.

For the compound `CC(=O)O[C@@]12CO[C@@H]1C[C@H](O)[C@@]1(C)C(=O)[C@H](OC(=O)C=C(C)C)C3=C(C)[C@@H](OC(=O)[C@H](O)[C@@H](NC(=O)OC(C)(C)C)c4ccco4)C[C@@](O)([C@@H](OC(=O)c4ccccc4)[C@H]21)C3(C)C` [Compound 2488], the pIC50 is above 9.00.
